Assay results reported in patent US7144856B2, “Inhibitors of dipeptidyl peptidase I” (Probiodrug AG, priority 2001, dated 2006).
Structures can show the parent of a compound that is named as a salt. Values belong to the molecule of their own block, whether it stands above or below them.

What was measured:
DP I [1] = target: T1, DP I (Rattus norvegicus, UniProt P80067); conditions: background, literature; cited from earlier work
T1 sequence (P80067 with tags, fused parts or gaps): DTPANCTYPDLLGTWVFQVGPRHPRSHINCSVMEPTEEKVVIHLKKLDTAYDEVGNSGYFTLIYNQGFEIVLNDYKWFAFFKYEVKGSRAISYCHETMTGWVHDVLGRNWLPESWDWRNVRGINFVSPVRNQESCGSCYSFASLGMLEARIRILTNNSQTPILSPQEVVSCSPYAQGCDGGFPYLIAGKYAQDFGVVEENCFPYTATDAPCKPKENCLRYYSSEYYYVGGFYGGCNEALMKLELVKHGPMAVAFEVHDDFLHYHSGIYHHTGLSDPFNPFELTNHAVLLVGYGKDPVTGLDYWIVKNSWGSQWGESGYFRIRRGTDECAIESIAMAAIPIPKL

cathepsin B = cathepsin B (Homo sapiens, UniProt P07858); test: cross-reactivity against cathepsin B, IC50; format: biochemical; conditions: n.i. = no inhibition; read-out: IC50 Cath. B
Procedure: (§1) Selected compounds, based on the general formula (II) below, were tested concerning their inhibitory potential against DP I and for their cross-reactivity against three more cysteine proteases, namely cathepsin B, H, L and another dipeptidyl peptidase, dipeptidyl peptidase IV (DP IV).

cathepsin H = target: T2, cathepsin H (Homo sapiens, UniProt P09668); test: cross-reactivity against cathepsin H, IC50; format: biochemical; conditions: n.i. = no inhibition; for IC50: read-out: IC50 Cath. H
T2 sequence (P09668 98-335): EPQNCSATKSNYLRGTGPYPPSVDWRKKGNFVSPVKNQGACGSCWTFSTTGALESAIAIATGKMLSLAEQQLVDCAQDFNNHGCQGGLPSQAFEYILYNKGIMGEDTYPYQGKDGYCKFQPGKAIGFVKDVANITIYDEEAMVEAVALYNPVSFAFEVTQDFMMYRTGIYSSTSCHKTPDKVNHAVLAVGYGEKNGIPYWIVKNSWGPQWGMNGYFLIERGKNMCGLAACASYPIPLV
Procedure: as §1

cathepsin L = cathepsin L (Homo sapiens, UniProt P07711); test: cross-reactivity against cathepsin L, IC50; format: biochemical; conditions: n.i. = no inhibition; read-out: IC50 Cath. L
cathepsin L, sequence (P07711 114-333): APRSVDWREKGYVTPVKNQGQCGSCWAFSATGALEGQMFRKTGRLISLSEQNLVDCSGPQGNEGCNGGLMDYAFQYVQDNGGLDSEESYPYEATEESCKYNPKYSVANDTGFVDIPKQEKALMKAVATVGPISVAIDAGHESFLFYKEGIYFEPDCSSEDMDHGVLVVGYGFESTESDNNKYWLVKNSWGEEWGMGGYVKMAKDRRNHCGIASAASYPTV
Procedure: as §1

[2] = target: dipeptidyl peptidase IV (DP IV) (Homo sapiens, UniProt P27487); test: cross-reactivity against dipeptidyl peptidase IV, IC50; format: biochemical; conditions: n.i. = no inhibition
dipeptidyl peptidase IV (DP IV), sequence (P27487 whole entry, species assumed): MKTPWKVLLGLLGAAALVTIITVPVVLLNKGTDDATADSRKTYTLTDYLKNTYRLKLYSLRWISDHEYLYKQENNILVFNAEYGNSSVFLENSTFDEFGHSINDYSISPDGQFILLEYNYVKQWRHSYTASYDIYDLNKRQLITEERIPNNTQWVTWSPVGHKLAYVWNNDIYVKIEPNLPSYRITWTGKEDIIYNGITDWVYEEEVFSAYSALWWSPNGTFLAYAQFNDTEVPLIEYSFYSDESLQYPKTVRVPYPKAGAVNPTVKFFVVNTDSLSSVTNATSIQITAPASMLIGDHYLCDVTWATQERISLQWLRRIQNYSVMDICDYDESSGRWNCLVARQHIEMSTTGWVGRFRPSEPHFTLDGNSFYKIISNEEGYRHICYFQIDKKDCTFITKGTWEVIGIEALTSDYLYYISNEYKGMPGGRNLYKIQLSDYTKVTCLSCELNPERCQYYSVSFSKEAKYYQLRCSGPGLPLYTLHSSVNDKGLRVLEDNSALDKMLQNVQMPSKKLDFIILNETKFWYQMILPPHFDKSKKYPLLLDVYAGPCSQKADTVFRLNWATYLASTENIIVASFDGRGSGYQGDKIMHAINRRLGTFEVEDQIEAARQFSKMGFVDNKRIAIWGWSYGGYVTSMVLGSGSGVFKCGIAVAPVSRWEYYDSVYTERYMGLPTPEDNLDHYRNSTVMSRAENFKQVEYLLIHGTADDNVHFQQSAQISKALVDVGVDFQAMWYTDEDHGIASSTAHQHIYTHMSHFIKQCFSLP
Procedure: as §1

DP I [3] = target: T3, DP I (Rattus norvegicus, UniProt P80067); test: determination of second order rate constant kinact/Ki for DP I; format: biochemical; conditions: substrate Gly-Arg-pNA 1 mM and 0.5 mM
T3 construct: purchased Qiagen
Procedure: For the Ki-value determination a UV-spectrophotometer (Lambda 20, PerkinElmer, Überlingen, Germany) was used. The reaction was monitored via the p-nitroaniline released from the substrate (Gly-Arg-pNA) at λ=390 nm. DP I (1 U/mg, assay condition: Tagzyme handbook, Qiagen, Hilden, Germany) was diluted in MES-buffer (1:1000) and preincubated and activated for 30 min on crashed ice. The reaction mixture consists: 500 μl stock solution MES-buffer, 500 μl HCl*Gly-L-Arg-pNA, 250 μl inhibitor, 50 μl DP I. In order to calculate the second order rate constant (kinact/Ki) two substrate concentrations (1 mM and 0.5 mM in the incubation mixture) were combined with 6 inhibitor concentrations (5*10^−7 M to 3*10^−8 M in the assay). From the product-time-course the observed first order rate constant was determined.
Plotting 1/kobs versus substrate concentration allows the calculation of the real first order rate constant of inactivation for each inhibitor concentration at [S]=0.
Based on this equation Ki and kinact can be determined.

[4] = system: L-929 (murine fibroblast cell line); test: cytotoxicity assay, L-929 cells; format: cell-based; conditions: 24 hours incubation
Procedure: (§2) The toxicological potential of the compounds provided therein against murine cell lines is different from their toxicological potential against human cell lines. Selected compounds, based on the general formula (II) above, were tested concerning their cytotoxicological potential against the two cell-lines, L-929 (murine fibroblast cell line) and Hep-G2 (human hepatocyte cell line) cells.
(§3) HEP-G2, a human hepatocyte cell line (ACC180) and L-929, a mouse fibroplast cell line (ACC2) were grown in RPMI 1604 with 10% fetal bovine serum and 60 μg/ml gentamycin.
(§4) All cultures were fed every 2–3 days and incubated in an humified chamber at 37° C. and 5% CO2. For determining the cytotoxicity of different DPI-inhibitors, we used the CytoTox96™ Non-radioactive Cytotoxicity Assay (Promega, Madison, Wis., USA). HEP-G2 (30000 cells per well) and L-929 (20000 cells per well) were placed in 96 well plates in RPMI 1604 with 10% fetal bovine serum and grown for 24 hours. The cells were then incubated with various concentrations of different DPI-inhibitors for 24 hours in RPMI 1604 with 10% fetal bovine serum. One hour after addition of MTS-solution, the reaction was stopped by adding stop-solution of Promega. The absorbance was measured at 490 nm with a spectrophotometer. All experiments were performed twice simultaneously in three wells.

[5] = system: Hep-G2 (human hepatocyte cell line); test: cytotoxicity assay, Hep-G2 cells; format: cell-based; conditions: 24 hours incubation
Procedure: as §2, §3, §4

melting point: 98 to 101 °C
Molecule: Cc1ccc(C(=O)ONC(=O)[C@H](Cc2ccccc2)NC(=O)CN)cc1 (as salt: TFA) [compound 12, TFA*H-Gly-L-Phe-NHO-Bz-p-CH3]

melting point: 69 to 71 °C
Molecule: CNCC(=O)N[C@@H](Cc1ccccc1)C(=O)NOC(=O)c1ccccc1 (as salt: TFA) [compound 14, TFA*H-Sar-L-Phe-NHO-Bz]

Molecule: CC(C)C[C@H](NC(=O)[C@H]1O[C@@H]1C(=O)O)C(=O)NCCCCN=C(N)N [E-64, reference compound]
inhibition of DP I (in words) (DP I [1]): weak inhibition

Molecule: CC(=O)ONC(=O)[C@H](Cc1ccccc1)NC(=O)CN [compound 10, TFA*H-Gly-L-Phe-NHO-Ac]
IC50 (cathepsin B): 117 µM | IC50 Cath. H (cathepsin H): n.i. | IC50 (cathepsin L): 156 µM | IC50 DP IV [2]: n.i. | kinact/KI (DP I [3]): 39000 M⁻¹ s⁻¹ | LD50 L-929 [4]: 4.3 mg/mL | LD50 Hep-G2 [5]: 1.6 mg/mL

Molecule: NCC(=O)N[C@@H](Cc1ccccc1)C(=O)NOC(=O)c1ccccc1 [compound 11, TFA*H-Gly-L-Phe-NHO-Bz]
IC50 (cathepsin B): 37.7 µM | IC50 Cath. H (cathepsin H): n.i. | IC50 (cathepsin L): 36.9 µM | IC50 DP IV [2]: n.i. | kinact/KI (DP I [3]): 400000 M⁻¹ s⁻¹ | LD50 L-929 [4]: 1.0 mg/mL | LD50 Hep-G2 [5]: 0.8 mg/mL

IC50 (cathepsin B): 34 µM | IC50 (cathepsin H): 154 µM | IC50 (cathepsin L): 33.1 µM | IC50 DP IV [2]: n.i. | kinact/KI (DP I [3]): 19000 M⁻¹ s⁻¹
Molecule: Cc1ccc(C(=O)ONC(=O)[C@H](Cc2ccccc2)NC(=O)CN)cc1 [compound 12, TFA*H-Gly-L-Phe-NHO-Bz-p-CH3]

Molecule: NCC(=O)N[C@@H](Cc1ccccc1)C(=O)NOC(=O)c1ccc([N+](=O)[O-])cc1 [compound 13, TFA*H-Gly-L-Phe-NHO-Bz-p-NO2]
IC50 (cathepsin B): 5.31 µM | IC50 (cathepsin H): 34.7 µM | IC50 (cathepsin L): 7.32 µM | IC50 DP IV [2]: n.i. | kinact/KI (DP I [3]): 79000 M⁻¹ s⁻¹ | LD50 L-929 [4]: 2.3 mg/mL | LD50 Hep-G2 [5]: 0.8 mg/mL

IC50 (cathepsin B): 41.8 µM | IC50 (cathepsin H): 205 µM | IC50 (cathepsin L): 4.61 µM | IC50 DP IV [2]: n.i. | kinact/KI (DP I [3]): 140000 M⁻¹ s⁻¹
Molecule: CNCC(=O)N[C@@H](Cc1ccccc1)C(=O)NOC(=O)c1ccccc1 [compound 14, TFA*H-Sar-L-Phe-NHO-Bz]

Molecule: CC(=O)N[C@@H](CC(C)C)C(=O)N[C@@H](CC(C)C)C(=O)N[C@H](C=O)CCCNC(=N)N [leupeptin, reference compound]
inhibition of DP I (in words) (DP I [1]): weak inhibition

B1: stefin A (protein, UniProt P01040 1-98, looked up)
Cystatin-A: MIPGGLSEAKPATPEIQEIVDKVKPQLEEKTNETYGKLEAVQYKTQVVAGTNYYIKVRAGDNKYMHLKVFKSLPGQNEDLVLTGYQVDKNKDDELTGF
inhibition of DP I (in words) (DP I [1]): Stronger reversible inhibitors

B2: chicken cystatin (protein, UniProt P01038 24-139, looked up)
Cystatin: SEDRSRLLGAPVPVDENDEGLQRALQFAMAEYNRASNDKYSSRVVRVISAKRQLVSGIKYILQVEIGRTTCPKSSGDLQSCEFHDEPEMAKYTTCTFVVYSIPWLNQIKLLESKCQ
inhibition of DP I (in words) (DP I [1]): Stronger reversible inhibitors
